In paper PMC4610166, “Structural and Functional Characterization of Recombinant Isoforms of the Lentil Lipid Transfer Protein” (Acta Naturae, 2015):

Legend:
Test in all cases: TNS fluorescence displacement (ex […] nm, em […] nm)
Format in all cases: binding
[1] = biological target: T1, Lc-LTP2 (Lens culinaris, UniProt A0AT29); settings: protein 2.5 uM; 3 uM TNS, 65 uM stearic acid; 175 mM D-mannitol, 0.5 mM K2SO4, 0.5 mM CaCl2, 5 mM MES pH 7.0, 25 C; competition with TNS
T1 sequence (A0AT29 26-118): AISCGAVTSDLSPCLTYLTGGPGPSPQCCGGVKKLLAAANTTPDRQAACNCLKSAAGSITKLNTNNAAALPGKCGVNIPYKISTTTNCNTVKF

[2] = biological target: T2, Lc-LTP3 (Lens culinaris, UniProt A0AT30); settings: protein 2.5 uM; 3 uM TNS, 65 uM stearic acid; 175 mM D-mannitol, 0.5 mM K2SO4, 0.5 mM CaCl2, 5 mM MES pH 7.0, 25 C; competition with TNS
T2 construct: mature protein, 93 residues; expressed in E. coli BL21(DE3) as His8-TrxL fusion, tag cut off with CNBr; from soluble fraction; four disulfides; monomer and dimer on SDS-PAGE
T2 sequence (A0AT30 26-118): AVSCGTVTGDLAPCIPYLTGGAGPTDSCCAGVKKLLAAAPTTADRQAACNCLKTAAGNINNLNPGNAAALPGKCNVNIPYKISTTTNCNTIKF

[3] = biological target: T3, Lc-LTP1 (Lens culinaris, UniProt A0AT28); settings: refolded protein 2.5 uM; 3 uM TNS, 65 uM stearic acid; 175 mM D-mannitol, 0.5 mM K2SO4, 0.5 mM CaCl2, 5 mM MES pH 7.0, 25 C; competition with TNS
T3 construct: mature protein, 93 residues; expressed in E. coli BL21(DE3) as His8-TrxL fusion, tag cut off with CNBr; four disulfides; monomer and dimer on SDS-PAGE
T3 sequence (A0AT28 26-118): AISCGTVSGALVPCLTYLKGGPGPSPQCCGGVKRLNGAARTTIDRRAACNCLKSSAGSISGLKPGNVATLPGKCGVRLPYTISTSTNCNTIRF

Compound: CCCCCCCCCCCCCCCCCC(=O)O [stearic acid]
- % fluorescence intensity of the protein-TNS complex [1]: all three isoforms possess the ability to bind fatty acids
- % fluorescence intensity of the protein-TNS complex [2]: all three isoforms possess the ability to bind fatty acids
- % fluorescence intensity of the protein-TNS complex [3]: all three isoforms possess the ability to bind fatty acids
